Patent publication US20250205344A1, “2,4-DIOXOTETRAHYDROPYRIMIDINYL DERATIVES AS DEGRONS IN PROTACS” (GLAXOSMITHKLINE INTELLECTUAL PROPERTY DEVELOPMENT LIMITED, priority 2022, published 2025)
Where a name gives a salt, the structure may show the parent alone.

target: T1, Androgen Receptor (Homo sapiens, UniProt P10275, T878A); test: Androgen Receptor Degradation Assay (Nano-Glo HiBiT); type: cell-based; conditions: LNCaP, 18 h, HiBiT-tagged AR in human LnCaP cells, read-out: mean asymptote max
T1 construct: the AR gene was modified, using CRISPR/Cas9 editing, so the expressed AR protein included an 11 amino acid HiBiT tag; endogenous in cells; host or cells: clonal LnCaP-derived line, AR gene edited by CRISPR/Cas9
Procedure, shortened: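 LnCaP cells with CRISPR-knocked-in N-terminal HiBiT-tagged AR (10,000/well) treated 18 h at 37 °C with PROTACs over 11 threefold concentrations; lytic HiBiT luminescence normalised to DMSO (0%) and cell-free (100%) controls. Relative DC50 = 4-parameter fit inflection; absolute DC50 = 50% degradation interpolation; Dmax = maximum observed degradation.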

T1 sequence (P10275 whole entry T878A): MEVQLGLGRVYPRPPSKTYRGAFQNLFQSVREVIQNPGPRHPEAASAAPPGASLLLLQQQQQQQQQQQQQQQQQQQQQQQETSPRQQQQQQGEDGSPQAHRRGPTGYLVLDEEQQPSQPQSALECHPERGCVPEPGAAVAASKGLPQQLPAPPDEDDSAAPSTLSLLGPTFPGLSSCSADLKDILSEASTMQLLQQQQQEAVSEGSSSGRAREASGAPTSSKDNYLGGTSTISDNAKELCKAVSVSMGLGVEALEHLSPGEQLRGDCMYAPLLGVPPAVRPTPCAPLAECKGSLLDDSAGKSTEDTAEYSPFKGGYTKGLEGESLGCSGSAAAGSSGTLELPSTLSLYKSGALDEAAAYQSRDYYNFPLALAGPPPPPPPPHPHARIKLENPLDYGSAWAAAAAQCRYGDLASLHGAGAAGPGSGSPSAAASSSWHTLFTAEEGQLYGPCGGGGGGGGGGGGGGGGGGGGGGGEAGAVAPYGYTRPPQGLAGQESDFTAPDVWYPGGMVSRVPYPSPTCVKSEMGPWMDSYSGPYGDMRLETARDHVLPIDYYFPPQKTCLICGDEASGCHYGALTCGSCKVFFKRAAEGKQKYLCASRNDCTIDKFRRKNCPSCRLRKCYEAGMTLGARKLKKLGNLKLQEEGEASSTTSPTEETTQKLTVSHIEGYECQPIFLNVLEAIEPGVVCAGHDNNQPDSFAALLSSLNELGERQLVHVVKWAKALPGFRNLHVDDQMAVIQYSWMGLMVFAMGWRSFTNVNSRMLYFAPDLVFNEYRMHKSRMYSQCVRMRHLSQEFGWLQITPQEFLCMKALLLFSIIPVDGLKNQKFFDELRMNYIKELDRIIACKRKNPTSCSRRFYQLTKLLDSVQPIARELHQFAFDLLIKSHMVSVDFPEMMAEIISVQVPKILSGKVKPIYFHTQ
T1 sequence (Q96SW2 whole entry partner): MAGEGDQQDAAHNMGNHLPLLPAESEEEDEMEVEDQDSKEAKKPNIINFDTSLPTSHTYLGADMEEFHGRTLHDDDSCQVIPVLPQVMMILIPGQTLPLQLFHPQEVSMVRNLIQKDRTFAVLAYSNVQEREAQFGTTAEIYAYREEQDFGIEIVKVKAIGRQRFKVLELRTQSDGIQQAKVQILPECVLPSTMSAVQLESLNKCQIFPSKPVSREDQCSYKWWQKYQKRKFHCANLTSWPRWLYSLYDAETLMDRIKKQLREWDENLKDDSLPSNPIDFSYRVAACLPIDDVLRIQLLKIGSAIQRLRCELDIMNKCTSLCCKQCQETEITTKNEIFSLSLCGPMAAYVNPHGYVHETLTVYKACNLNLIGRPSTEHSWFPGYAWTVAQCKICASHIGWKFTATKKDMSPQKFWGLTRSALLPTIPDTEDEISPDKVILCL
T1 sequence (Q16531 whole entry partner): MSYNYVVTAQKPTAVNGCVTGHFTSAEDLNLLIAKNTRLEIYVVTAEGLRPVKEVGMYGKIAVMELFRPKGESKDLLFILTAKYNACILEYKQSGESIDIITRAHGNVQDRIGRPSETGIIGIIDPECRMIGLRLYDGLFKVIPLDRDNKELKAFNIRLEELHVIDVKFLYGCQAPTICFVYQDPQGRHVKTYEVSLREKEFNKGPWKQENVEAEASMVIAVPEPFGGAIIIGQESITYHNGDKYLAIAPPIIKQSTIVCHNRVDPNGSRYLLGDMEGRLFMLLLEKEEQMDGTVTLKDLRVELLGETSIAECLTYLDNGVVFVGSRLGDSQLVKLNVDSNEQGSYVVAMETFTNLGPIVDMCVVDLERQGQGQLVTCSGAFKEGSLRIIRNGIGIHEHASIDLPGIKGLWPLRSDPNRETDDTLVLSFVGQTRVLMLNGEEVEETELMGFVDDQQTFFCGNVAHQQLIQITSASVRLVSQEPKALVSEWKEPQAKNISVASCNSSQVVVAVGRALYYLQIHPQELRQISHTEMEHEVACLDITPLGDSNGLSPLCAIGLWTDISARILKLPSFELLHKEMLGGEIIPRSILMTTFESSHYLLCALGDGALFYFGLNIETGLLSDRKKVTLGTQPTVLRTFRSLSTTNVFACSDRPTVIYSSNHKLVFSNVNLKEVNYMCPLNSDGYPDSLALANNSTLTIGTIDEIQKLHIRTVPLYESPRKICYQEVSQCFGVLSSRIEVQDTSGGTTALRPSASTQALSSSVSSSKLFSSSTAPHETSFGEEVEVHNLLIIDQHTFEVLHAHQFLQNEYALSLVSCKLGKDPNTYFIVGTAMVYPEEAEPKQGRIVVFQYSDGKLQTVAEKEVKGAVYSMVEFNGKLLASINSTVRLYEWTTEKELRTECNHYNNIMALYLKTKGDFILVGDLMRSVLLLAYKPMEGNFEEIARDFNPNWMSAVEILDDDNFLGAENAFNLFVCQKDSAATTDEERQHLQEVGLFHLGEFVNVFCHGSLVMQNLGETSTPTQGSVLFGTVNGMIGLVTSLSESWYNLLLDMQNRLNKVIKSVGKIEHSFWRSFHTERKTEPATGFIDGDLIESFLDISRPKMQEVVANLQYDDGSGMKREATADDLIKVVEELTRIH

Dmax | SMILES
≥ 50% | N#Cc1ccc(O[C@H]2CC[C@H](NC(=O)c3ccc(N4CCC(CN5CCC(n6ncc7c(N8CCC(=O)NC8=O)c(F)ccc76)CC5)CC4)nn3)CC2)cc1Cl [EAR140, N-((1r,4r)-4-(3-Chloro-4-cyanophenoxy)cyclohexyl)-6-(4-((4-(4-(2,4-dioxotetrahydropyrimidin-1(2H)-yl)-5-fluoro-1H-indazol-1-yl)piperidin-1-yl)methyl)piperidin-1-yl)pyridazine-3-carboxamide, hydrochloride]
≥ 50% | N#Cc1ccc(O[C@H]2CC[C@H](NC(=O)c3ccc(N4CCC(CN5CCC(n6ccc7c(N8CCC(=O)NC8=O)cc(C(F)(F)F)cc76)CC5)CC4)nn3)CC2)cc1Cl [EAR176, N-((1r,4r)-4-(3-chloro-4-cyanophenoxy)cyclohexyl)-6-(4-((4-(4-(2,4-dioxotetrahydropyrimidin-1(2H)-yl)-6-(trifluoromethyl)-1H-indol-1-yl)piperidin-1-yl)methyl)piperidin-1-yl)pyridazine-3-carboxamide]
≥ 50% | N#Cc1ccc(O[C@H]2CC[C@H](NC(=O)c3ccc(N4CCC(CN5CCC(n6ccc7c(N8CCC(=O)NC8=O)cncc76)CC5)CC4)nc3)CC2)cc1C(F)(F)F [AR19, N-((1r,4r)-4-(4-Cyano-3-(trifluoromethyl)phenoxy)cyclohexyl)-6-(4-((4-(4-(2,4-dioxotetrahydropyrimidin-1(2H)-yl)-1H-pyrrolo[2,3-c]pyridin-1-yl)piperidin-1-yl)methyl)piperidin-1-yl)nicotinamide]
≥ 50% | N#Cc1ccc(O[C@H]2CC[C@H](NC(=O)c3ccc(CN4CCC(n5ccc6c(N7CCC(=O)NC7=O)cccc65)CC4)cc3)CC2)cc1Cl [EAR180, N-((1r,4r)-4-(3-Chloro-4-cyanophenoxy)cyclohexyl)-4-((4-(4-(2,4-dioxotetrahydropyrimidin-1(2H)-yl)-1H-indol-1-yl)piperidin-1-yl)methyl)benzamide]
≥ 50% | CC1(C)[C@H](NC(=O)c2cnc(N3CCC(CN4CCC(n5ccc6c(N7CCC(=O)NC7=O)cccc65)CC4)CC3)nc2)C(C)(C)[C@H]1Oc1ccc(C#N)c(Cl)c1 [EAR11, N-((1r,3r)-3-(3-Chloro-4-cyanophenoxy)-2,2,4,4-tetramethylcyclobutyl)-2-(4-((4-(4-(2,4-dioxotetrahydropyrimidin-1(2H)-yl)-1H-indol-1-yl)piperidin-1-yl)methyl)piperidin-1-yl)pyrimidine-5-carboxamide]
≥ 50% | N#Cc1ccc(O[C@H]2CC[C@H](NC(=O)c3ccc(N4CCC[C@@H](CN5CCC(n6ccc7c(N8CCC(=O)NC8=O)cccc76)CC5)C4)nn3)CC2)cc1Cl [EAR143, N-((1r,4R)-4-(3-chloro-4-cyanophenoxy)cyclohexyl)-6-((S)-3-((4-(4-(2,4-dioxotetrahydropyrimidin-1(2H)-yl)-1H-indol-1-yl)piperidin-1-yl)methyl)piperidin-1-yl)pyridazine-3-carboxamide]
≥ 50% | CC1(C)[C@H](NC(=O)c2ccc(N3CCC(CN4CCC(n5ncc6c(N7CCC(=O)NC7=O)ccnc65)CC4)CC3)cn2)C(C)(C)[C@H]1Oc1ccc(C#N)c2ncccc12 [EAR260, N-((1r,3r)-3-((8-Cyanoquinolin-5-yl)oxy)-2,2,4,4-tetramethylcyclobutyl)-5-(4-((4-(4-(2,4-dioxotetrahydropyrimidin-1(2H)-yl)-1H-pyrazolo[3,4-b]pyridin-1-yl)piperidin-1-yl)methyl)piperidin-1-yl)picolinamide hydrochloride]
≥ 50% | N#Cc1ccc(O[C@H]2CC[C@H](NC(=O)c3ccc(N4CCC(CN5CCC(n6ccc7c(N8CCC(=O)NC8=O)cc(F)cc76)CC5)CC4)nn3)CC2)cc1Cl [EAR31, N-((1r,4r)-4-(3-Chloro-4-cyanophenoxy)cyclohexyl)-6-(4-((4-(4-(2,4-dioxotetrahydropyrimidin-1(2H)-yl)-6-fluoro-1H-indol-1-yl)piperidin-1-yl)methyl)piperidin-1-yl)pyridazine-3-carboxamide hydrochloride]
≥ 50% | CC(C)n1ccc2c(N3CCC(=O)NC3=O)cc(C(=O)N(C)C3CCN(CCCCOc4ccc(C(=O)N[C@H]5CC[C@H](Oc6ccc(C#N)c(Cl)c6)CC5)nc4)CC3)cc21 [EAR64, N-(1-(4-((6-(((1r,4r)-4-(3-Chloro-4-cyanophenoxy)cyclohexyl)carbamoyl)pyridin-3-yl)oxy)butyl)piperidin-4-yl)-4-(2,4-dioxotetrahydropyrimidin-1(2H)-yl)-1-isopropyl-N-methyl-1H-indole-6-carboxamide]
≥ 50% | CC(C1CCN(c2ccc(C(=O)N[C@H]3CC[C@H](Oc4ccc(C#N)c(Cl)c4)CC3)nn2)CC1)N1CCC(n2ccc3c(N4CCC(=O)NC4=O)cncc32)CC1 (stereo partly shown) [EAR135, N-((1r,4r)-4-(3-Chloro-4-cyanophenoxy)cyclohexyl)-6-(4-(1-(4-(4-(2,4-dioxotetrahydropyrimidin-1(2H)-yl)-1H-pyrrolo[2,3-c]pyridin-1-yl)piperidin-1-yl)ethyl)piperidin-1-yl)pyridazine-3-carboxamide]
≥ 50% | N#Cc1ccc(O[C@H]2CC[C@H](NC(=O)c3ccc(N4CCC(CN5CCC[C@@H](n6ccc7c(N8CCC(=O)NC8=O)cccc76)C5)CC4)nn3)CC2)cc1Cl [EAR184, N-((1r,4r)-4-(3-Chloro-4-cyanophenoxy)cyclohexyl)-6-(4-(((S)-3-(4-(2,4-dioxotetrahydropyrimidin-1(2H)-yl)-1H-indol-1-yl)piperidin-1-yl)methyl)piperidin-1-yl)pyridazine-3-carboxamide hydrochloride]
≥ 50% | N#Cc1ccc(O[C@H]2CC[C@H](NC(=O)c3ccc(N4CC[C@@H](CN5CCC(n6ncc7c(N8CCC(=O)NC8=O)cccc76)CC5)C4)nn3)CC2)cc1Cl [EAR239, N-((1r,4R)-4-(3-chloro-4-cyanophenoxy)cyclohexyl)-6-((S)-3-((4-(4-(2,4-dioxotetrahydropyrimidin-1(2H)-yl)-1H-indazol-1-yl)piperidin-1-yl)methyl)pyrrolidin-1-yl)pyridazine-3-carboxamide]
≥ 50% | N#Cc1ccc(O[C@H]2CC[C@H](NC(=O)c3cnc(N4CCC(CN5CCC(n6ccc7c(N8CCC(=O)NC8=O)nccc76)CC5)CC4)cn3)CC2)cc1C(F)(F)F [EAR181, N-((1r,4r)-4-(4-Cyano-3-(trifluoromethyl)phenoxy)cyclohexyl)-5-(4-((4-(4-(2,4-dioxotetrahydropyrimidin-1(2H)-yl)-1H-pyrrolo[3,2-c]pyridin-1-yl)piperidin-1-yl)methyl)piperidin-1-yl)pyrazine-2-carboxamide]

SMILES | Dmax
CC1(C)C(=O)N(c2ccc(C#N)c(C(F)(F)F)c2)C(=S)N1c1ccc(N2CCC(CN3CCC(n4ccc5c(N6CCC(=O)NC6=O)cncc54)CC3)CC2)cc1 [EAR101, 4-(3-(4-(4-((4-(4-(2,4-Dioxotetrahydropyrimidin-1(2H)-yl)-1H-pyrrolo[2,3-c]pyridin-1-yl)piperidin-1-yl)methyl)piperidin-1-yl)phenyl)-4,4-dimethyl-5-oxo-2-thioxoimidazolidin-1-yl)-2-(trifluoromethyl)benzonitrile] | ≥ 50%
CC1(C)C(=O)N(c2ccc(C#N)c(C(F)(F)F)c2)C(=S)N1c1ccc(OCCCN2CCC(n3ccc4c(N5CCC(=O)NC5=O)cncc43)CC2)cc1 [EAR104, 4-(3-(4-(3-(4-(4-(2,4-Dioxotetrahydropyrimidin-1(2H)-yl)-1H-pyrrolo[2,3-c]pyridin-1-yl)piperidin-1-yl)propoxy)phenyl)-4,4-dimethyl-5-oxo-2-thioxoimidazolidin-1-yl)-2-(trifluoromethyl)benzonitrile] | ≥ 50%
C[C@@H]1CN(c2ccc(C#N)c(Cl)c2)[C@@H](C)CN1C(=O)c1ccc(N2CCC(CN3CCC(n4ncc5c(N6CCC(=O)NC6=O)cncc54)CC3)CC2)nn1 [EAR146, 2-Chloro-4-((2S,5R)-4-(6-(4-((4-(4-(2,4-dioxotetrahydropyrimidin-1(2H)-yl)-1H-pyrazolo[3,4-c]pyridin-1-yl)piperidin-1-yl)methyl)piperidin-1-yl)pyridazine-3-carbonyl)-2,5-dimethylpiperazin-1-yl)benzonitrile] | ≥ 50%
N#Cc1ccc(O[C@H]2CC[C@H](NC(=O)c3ccc(N4CC5CC(C4)C5CN4CCC(n5ncc6c(N7CCC(=O)NC7=O)cccc65)CC4)nn3)CC2)cc1Cl (stereo partly shown) [EAR228, N-((1r,4r)-4-(3-chloro-4-cyanophenoxy)cyclohexyl)-6-(6-((4-(4-(2,4-dioxotetrahydropyrimidin-1(2H)-yl)-1H-indazol-1-yl)piperidin-1-yl)methyl)-3-azabicyclo[3.1.1]heptan-3-yl)pyridazine-3-carboxamide] | ≥ 50%
CC(C)n1ccc2c(N3CCC(=O)NC3=O)cc(C(=O)N(C)CC3CCN(C4CCN(c5ccc(N6C(=S)N(c7ccc(C#N)c(C(F)(F)F)c7)C(=O)C6(C)C)cc5)CC4)CC3)cc21 [EAR88, N-((1′-(4-(3-(4-Cyano-3-(trifluoromethyl)phenyl)-5,5-dimethyl-4-oxo-2-thioxoimidazolidin-1-yl)phenyl)-[1,4′-bipiperidin]-4-yl)methyl)-4-(2,4-dioxotetrahydropyrimidin-1(2H)-yl)-1-isopropyl-N-methyl-1H-indole-6-carboxamide formate] | ≥ 50%
C[C@@H]1CN(c2ccc(C#N)c(Cl)c2)[C@@H](C)CN1C(=O)Nc1ccc(N2CCC(CN3CCC(n4ccc5c(N6CCC(=O)NC6=O)cccc54)CC3)CC2)nc1 [EAR108, (2R,5S)-4-(3-Chloro-4-cyanophenyl)-N-(6-(4-((4-(4-(2,4-dioxotetrahydropyrimidin-1(2H)-yl)-1H-indol-1-yl)piperidin-1-yl)methyl)piperidin-1-yl)pyridin-3-yl)-2,5-dimethylpiperazine-1-carboxamide] | ≥ 50%
